These molecules were tested against T1, human PAH with the R408W mutation (Homo sapiens, UniProt P00439, R408W) (assay: Cell Based Phenylalanine Flux Assay). Settings: A375 cells expressing human R408W PAH; 24 hrs compound incubation; 13C-Tyrosine by LC-MS; average where tested multiple times; read-out: AC50.
T1 construct: expressed in transfected cells
T1 sequence (P00439 1-452 R408W): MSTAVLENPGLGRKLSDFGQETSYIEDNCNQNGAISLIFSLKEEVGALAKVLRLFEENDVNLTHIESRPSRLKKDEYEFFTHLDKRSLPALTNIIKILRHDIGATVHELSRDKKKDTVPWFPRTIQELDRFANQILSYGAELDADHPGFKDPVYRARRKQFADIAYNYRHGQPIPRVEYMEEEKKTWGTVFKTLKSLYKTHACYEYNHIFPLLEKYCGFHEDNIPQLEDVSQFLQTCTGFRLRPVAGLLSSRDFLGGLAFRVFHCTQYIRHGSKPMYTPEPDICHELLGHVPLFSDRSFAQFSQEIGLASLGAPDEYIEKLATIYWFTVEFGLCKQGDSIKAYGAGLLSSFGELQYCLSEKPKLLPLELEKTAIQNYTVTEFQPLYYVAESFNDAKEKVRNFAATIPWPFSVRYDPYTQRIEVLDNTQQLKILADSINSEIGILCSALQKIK

AC50 [µM] | Compound
1 to 5 | Cc1cccc2nc([C@H]3c4nc[nH]c4CCN3C(=O)c3cncs3)sc12 [Example 1315, (R)-(4-(7-methylbenzo[d]thiazol-2-yl)-6,7-dihydro-1H-imidazo[4,5-c]pyridin-5(4H)-yl)(thiazol-5-yl)methanone]
< 0.5 | Cc1cccc2nc([C@@H]3c4nc[nH]c4CCN3C(=O)c3cncs3)sc12 [Example 1316, (S)-(4-(7-methylbenzo[d]thiazol-2-yl)-6,7-dihydro-1H-imidazo[4,5-c]pyridin-5(4H)-yl)(thiazol-5-yl)methanone]
< 0.5 | Cc1ncoc1C(=O)N1CCc2[nH]cnc2[C@H]1c1nc2c(F)cccc2s1 [Example 1319, (S)-(4-(4-fluorobenzo[d]thiazol-2-yl)-6,7-dihydro-1H-imidazo[4,5-c]pyridin-5(4H)-yl)(4-methyloxazol-5-yl)methanone]
1 to 5 | Cc1ncoc1C(=O)N1CCc2[nH]cnc2[C@@H]1c1nc2c(F)cccc2s1 [Example 1320, (R)-(4-(4-fluorobenzo[d]thiazol-2-yl)-6,7-dihydro-1H-imidazo[4,5-c]pyridin-5(4H)-yl)(4-methyloxazol-5-yl)methanone]
< 0.5 | Cc1nc(C)c(C(=O)N2CCc3[nH]cnc3[C@H]2c2nc3c(F)cccc3s2)o1 [Example 1321]
> 5 | Cc1nc(C)c(C(=O)N2CCc3[nH]cnc3[C@@H]2c2nc3c(F)cccc3s2)o1 [Example 1322, (R)-(2,4-dimethyloxazol-5-yl)(4-(4-fluorobenzo[d]thiazol-2-yl)-6,7-dihydro-1H-imidazo[4,5-c]pyridin-5(4H)-yl)methanone]
< 0.5 | O=C(c1cnc(C2CC2)o1)N1CCc2[nH]cnc2[C@H]1c1nc2c(F)cccc2s1 [Example 1329]
1 to 5 | O=C(c1cnc(C2CC2)o1)N1CCc2[nH]cnc2[C@@H]1c1nc2c(F)cccc2s1 [Example 1330, (R)-(2-cyclopropyloxazol-5-yl)(4-(4-fluorobenzo[d]thiazol-2-yl)-6,7-dihydro-1H-imidazo[4,5-c]pyridin-5(4H)-yl)methanone]
0.5 to 1 | Cc1nnc(C(=O)N2CCc3[nH]cnc3[C@H]2c2nc3cccc(F)c3s2)s1 [Example 1331, (S)-(4-(7-fluorobenzo[d]thiazol-2-yl)-6,7-dihydro-1H-imidazo[4,5-c]pyridin-5(4H)-yl)(5-methyl-1,3,4-thiadiazol-2-yl)methanone]
1 to 5 | Cc1nnc(C(=O)N2CCc3[nH]cnc3[C@@H]2c2nc3cccc(F)c3s2)s1 [Example 1332, (R)-(4-(7-fluorobenzo[d]thiazol-2-yl)-6,7-dihydro-1H-imidazo[4,5-c]pyridin-5(4H)-yl)(5-methyl-1,3,4-thiadiazol-2-yl)methanone]
< 0.5 | O=C(c1cnn2ccccc12)N1CCc2[nH]cnc2[C@H]1c1nc2cccc(Br)c2s1 [Example 1335, (S)-(4-(7-bromobenzo[d]thiazol-2-yl)-6,7-dihydro-1H-imidazo[4,5-c]pyridin-5(4H)-yl)(pyrazolo[1,5-a]pyridin-3-yl)methanone]
1 to 5 | O=C(c1cnn2ccccc12)N1CCc2[nH]cnc2[C@@H]1c1nc2cccc(Br)c2s1 [Example 1336, (R)-(4-(7-bromobenzo[d]thiazol-2-yl)-6,7-dihydro-1H-imidazo[4,5-c]pyridin-5(4H)-yl)(pyrazolo[1,5-a]pyridin-3-yl)methanone]
< 0.5 | O=C(c1cnc(-c2ccc(F)cn2)s1)N1CCc2[nH]cnc2[C@H]1c1nc2ccccc2s1 [Example 1339]
1 to 5 | O=C(c1cnc(-c2ccc(F)cn2)s1)N1CCc2[nH]cnc2[C@@H]1c1nc2ccccc2s1 [Example 1340, (R)-(4-(benzo[d]thiazol-2-yl)-6,7-dihydro-1H-imidazo[4,5-c]pyridin-5(4H)-yl)(2-(5-fluoropyridin-2-yl)thiazol-5-yl)methanone]
< 0.5 | O=C(c1scnc1C(F)(F)F)N1CCc2[nH]cnc2[C@@H]1c1nc2ccccc2s1 [Example 1342, (R)-(4-(benzo[d]thiazol-2-yl)-6,7-dihydro-1H-imidazo[4,5-c]pyridin-5(4H)-yl)(4-(trifluoromethyl)thiazol-5-yl)methanone]

More lines, now with the values behind:

Compound | AC50 [µM]
COCc1ccc2c(C(=O)N3CCc4[nH]cnc4[C@H]3c3nc4ccccc4s3)cnn2c1 [Example 1309] | 0.5 to 1
COCc1ccc2c(C(=O)N3CCc4[nH]cnc4[C@@H]3c3nc4ccccc4s3)cnn2c1 [Example 1310, (R)-(4-(benzo[d]thiazol-2-yl)-6,7-dihydro-1H-imidazo[4,5-c]pyridin-5(4H)-yl)(6-(methoxymethyl)pyrazolo[1,5-a]pyridin-3-yl)methanone] | > 5
CN(C)Cc1ccc2c(C(=O)N3CCc4[nH]cnc4[C@H]3c3nc4ccccc4s3)cnn2c1 [Example 1311] | 0.5 to 1
CN(C)Cc1ccc2c(C(=O)N3CCc4[nH]cnc4[C@@H]3c3nc4ccccc4s3)cnn2c1 [Example 1312, (R)-(4-(benzo[d]thiazol-2-yl)-6,7-dihydro-1H-imidazo[4,5-c]pyridin-5(4H)-yl)(6-((dimethylamino)methyl)pyrazolo[1,5-a]pyridin-3-yl)methanone] | > 5
O=C(c1cnn2cc(CN3CCC(F)(F)C3)ccc12)N1CCc2[nH]cnc2[C@H]1c1nc2ccccc2s1 [Example 1313] | 0.5 to 1
O=C(c1cnn2cc(CN3CCC(F)(F)C3)ccc12)N1CCc2[nH]cnc2[C@@H]1c1nc2ccccc2s1 [Example 1314, (R)-(4-(benzo[d]thiazol-2-yl)-6,7-dihydro-1H-imidazo[4,5-c]pyridin-5(4H)-yl)(6-((3,3-difluoropyrrolidin-1-yl)methyl)pyrazolo[1,5-a]pyridin-3-yl)methanone] | > 5
O=C(c1cnc(-c2ccccn2)o1)N1CCc2[nH]cnc2[C@H]1c1nc2ccccc2s1 [Example 1317] | < 0.5
O=C(c1cnc(-c2ccccn2)o1)N1CCc2[nH]cnc2[C@@H]1c1nc2ccccc2s1 [Example 1318, (R)-(4-(benzo[d]thiazol-2-yl)-6,7-dihydro-1H-imidazo[4,5-c]pyridin-5(4H)-yl)(2-(pyridin-2-yl)oxazol-5-yl)methanone] | 1 to 5
O=C(c1cnc(N2CCCC2)s1)N1CCc2[nH]cnc2[C@H]1c1nc2ccccc2s1 [Example 1323] | < 0.5
O=C(c1cnc(N2CCCC2)s1)N1CCc2[nH]cnc2[C@@H]1c1nc2ccccc2s1 [Example 1324, (R)-(4-(benzo[d]thiazol-2-yl)-6,7-dihydro-1H-imidazo[4,5-c]pyridin-5(4H)-yl)(2-(pyrrolidin-1-yl)thiazol-5-yl)methanone] | 1 to 5
O=C(c1ocnc1C(F)(F)F)N1CCc2[nH]cnc2[C@H]1c1nc2ccccc2s1 [Example 1325] | < 0.5
O=C(c1ocnc1C(F)(F)F)N1CCc2[nH]cnc2[C@@H]1c1nc2ccccc2s1 [Example 1326, (R)-(4-(benzo[d]thiazol-2-yl)-6,7-dihydro-1H-imidazo[4,5-c]pyridin-5(4H)-yl)(4-(trifluoromethyl)oxazol-5-yl)methanone] | 0.5 to 1
O=C(c1ocnc1C1CC1)N1CCc2[nH]cnc2[C@H]1c1nc2ccccc2s1 [Example 1327] | < 0.5
O=C(c1ocnc1C1CC1)N1CCc2[nH]cnc2[C@@H]1c1nc2ccccc2s1 [Example 1328, (R)-(4-(benzo[d]thiazol-2-yl)-6,7-dihydro-1H-imidazo[4,5-c]pyridin-5(4H)-yl)(4-cyclopropyloxazol-5-yl)methanone] | 1 to 5
O=C(c1cnn2cc(F)ccc12)N1CCc2[nH]cnc2[C@H]1c1nc2cc(F)ccc2s1 [Example 1333, (S)-(4-(5-fluorobenzo[d]thiazol-2-yl)-6,7-dihydro-1H-imidazo[4,5-c]pyridin-5(4H)-yl)(6-fluoropyrazolo[1,5-a]pyridin-3-yl)methanone] | 0.5 to 1
O=C(c1cnn2cc(F)ccc12)N1CCc2[nH]cnc2[C@@H]1c1nc2cc(F)ccc2s1 [Example 1334, (R)-(4-(5-fluorobenzo[d]thiazol-2-yl)-6,7-dihydro-1H-imidazo[4,5-c]pyridin-5(4H)-yl)(6-fluoropyrazolo[1,5-a]pyridin-3-yl)methanone] | > 5
O=C(c1cnc(-c2ccc(F)cn2)o1)N1CCc2[nH]cnc2[C@H]1c1nc2ccccc2s1 [Example 1337] | < 0.5
O=C(c1cnc(-c2ccc(F)cn2)o1)N1CCc2[nH]cnc2[C@@H]1c1nc2ccccc2s1 [Example 1338, (R)-(4-(benzo[d]thiazol-2-yl)-6,7-dihydro-1H-imidazo[4,5-c]pyridin-5(4H)-yl)(2-(5-fluoropyridin-2-yl)oxazol-5-yl)methanone] | 1 to 5
O=C(c1scnc1C(F)(F)F)N1CCc2[nH]cnc2[C@H]1c1nc2ccccc2s1 [Example 1341] | < 0.5
Cn1cc(-c2ncc(C(=O)N3CCc4[nH]cnc4[C@@H]3c3nc4ccccc4s3)o2)cn1 [Example 1343, (R)-(4-(benzo[d]thiazol-2-yl)-6,7-dihydro-1H-imidazo[4,5-c]pyridin-5(4H)-yl)(2-(1-methyl-1H-pyrazol-4-yl)oxazol-5-yl)methanone] | 1 to 5
Cn1cc(-c2ncc(C(=O)N3CCc4[nH]cnc4[C@H]3c3nc4ccccc4s3)o2)cn1 [Example 1344] | 0.5 to 1
Cn1cc(-c2ncc(C(=O)N3CCc4[nH]cnc4[C@@H]3c3nc4c(F)cccc4s3)o2)cn1 [Example 1345, (R)-(4-(4-fluorobenzo[d]thiazol-2-yl)-6,7-dihydro-1H-imidazo[4,5-c]pyridin-5(4H)-yl)(2-(1-methyl-1H-pyrazol-4-yl)oxazol-5-yl)methanone] | 1 to 5
